We go through 3 compounds from patent publication US8563732B2, “Oxyimino compounds and the use thereof” (Shionogi & Co., Ltd., priority 2007, dated 2013).

Where only a bound is given, the exact number is not on record here.

The target in assay [1] is T1, L-type calcium channel (LTCC) (Rattus norvegicus, UniProt P22002).
T1 construct: The 6.5 kb cDNA encoding the L-type calcium channel α1c subunit was cloned by PCR amplification from rat heart cDNA; expressed in transfected cells
Briefly: FLIPR calcium mobilization assay for L-type calcium channel. The assay is classed as cell-based. To be noted: calcium mobilization in vitro assay; HEK293 cells expressing recombinant rat LTCC subunits (α1c, α2δ, β1), 90 mM KCl. How it is done:
Recombinant human embryonal kidney cells (HEK293, ATCC) stably transfected with either N-type calcium channel (NTCC) subunits (α1b, α2δ, and (β3) or L-type calcium channel (LTCC) subunits (α1c, α2δ, and β1) were routinely cultured in growth medium consisting of Dulbecco's Modified Eagles Medium containing 10% FBS, 100 U/mL penicillin, 100 μg/mL streptomycin, 4 mM L-glutamine, 500 μg/mL geneticin (G418), 20 μg/mL Blasticidin S (InVivogen, San Diego, Calif.) and 500 μg/mL zeocin (InVivogen).
FLIPR Calcium Mobilization Assay for L-type Calcium Channel. One day prior to performing this assay, HEK293 cells stably expressing recombinant rat L-type calcium channel (LTCC) subunits (α1c, α2δ, and β1) were trypsinized, then seeded on poly-D-lysine-coated 96-well clear-bottom black plates (Becton Dickinson, Franklin Lakes, N.J.) at 75,000 cells/well. On the day of the assay, the plates were washed with LTCC wash buffer (127 mM NaCl, 2 mM MgCl2, 700 μM NaH2PO4, 5 mM CaCl2, 5 mM NaHCO3, 8 mM HEPES, 10 mM glucose, pH 7.4), then loaded with 0.1 mL of LTCC wash buffer containing Fluo-4 (3 μM final concentration, Molecular Probes, Eugene, Oreg.). After 1 hour, the cells were washed with 0.1 mL LTCC wash buffer and resuspended in 0.05 mL LTCC assay buffer (same composition as LTCC wash buffer). Plates were then transferred to a FLIPR^96 for assay. The FLIPR measured basal Fluo-4 fluorescence for 15 seconds, then added 0.05 mL of each compound tested diluted in LTCC assay buffer at final concentrations ranging from about 846 pM to about 17 μM. Fluo-4 fluorescence was then measured for 5 minutes. 0.1 mL KCl agonist dissolved in LTCC assay buffer was then added to the cells to produce a final concentration of 90 mM KCl, and fluorescence was measured for another 45 seconds. Data were collected over the entire time course and analyzed using Excel, Graph Pad Prism, or an in-house regression analysis software.
In general terms: Calcium flux is commonly read through the fluorescence of an indicator in the cells.

The target of assay [2] is T2, N-type calcium channel (NTCC) (Homo sapiens, UniProt Q00975).
T2 construct: host or cells: IMR32 cells, differentiated with dibutyryl cAMP and bromodeoxyuridine
As to the kind of experiment: FLIPR calcium mobilization assay for N-type calcium channel. Format: cell-based. To be noted: calcium mobilization in vitro assay; differentiated IMR32 cells, 5 μM nitrendipine, 90 mM KCl. How it is done: Cell maintenance and differentiation. Unless noted otherwise, cell culture reagents were purchased from Mediatech of Herndon, Md. IMR32 cells (American Type Culture Collection, ATCC, Manassas, Va.) were routinely cultured in growth medium consisting of minimum essential medium containing 10% fetal bovine serum (FBS, Hyclone, Logan, Utah), 100 U/mL penicillin, 100 μg/mL streptomycin, 2 mM L-glutamine, 1 mM sodium pyruvate, and 1×MEM non-essential amino acids. 80-90% confluent flasks of cells were differentiated using the following differentiation medium: Growth medium plus 1 mM dibutyryl cyclic AMP (Sigma, St. Louis, Mo.), and 2.5 μM bromodeoxyuridine (Sigma). Cells were differentiated for 8 days by replacing differentiation medium every 2-3 days.
FLIPR Calcium Mobilization Assay for N-type Calcium Channel. One day prior to performing this assay, differentiated IMR32 cells were treated with 1× CellStripper, and seeded on poly-D-lysine-coated 96-well clear-bottom black plates (Becton Dickinson, Franklin Lakes, N.J.) at 200,000 cells/well. […] Plates were then transferred to a Fluorimetric Imaging Plate Reader (FLIPR^96, Molecular Devices, Inc., Sunnyvale, Calif.) for assay. The FLIPR measured basal Fluo-4 fluorescence for 315 seconds (i.e., 5 minutes and 15 seconds), then added 0.1 mL KCl agonist dissolved in IMR32 buffer and measured fluorescence for another 45 seconds. Final test compound concentrations on the cells after FLIPR read ranged from about 846 pM to about 17 μM, final nitrendipine concentration was 5 μM, and final KCl concentration was 90 mM. Data were collected over the entire time course and analyzed using Excel, Graph Pad Prism (version 3.02, Graph Pad, San Diego, Calif.), or an in-house non-linear regression analysis software.

T1 sequence (P22002 whole entry): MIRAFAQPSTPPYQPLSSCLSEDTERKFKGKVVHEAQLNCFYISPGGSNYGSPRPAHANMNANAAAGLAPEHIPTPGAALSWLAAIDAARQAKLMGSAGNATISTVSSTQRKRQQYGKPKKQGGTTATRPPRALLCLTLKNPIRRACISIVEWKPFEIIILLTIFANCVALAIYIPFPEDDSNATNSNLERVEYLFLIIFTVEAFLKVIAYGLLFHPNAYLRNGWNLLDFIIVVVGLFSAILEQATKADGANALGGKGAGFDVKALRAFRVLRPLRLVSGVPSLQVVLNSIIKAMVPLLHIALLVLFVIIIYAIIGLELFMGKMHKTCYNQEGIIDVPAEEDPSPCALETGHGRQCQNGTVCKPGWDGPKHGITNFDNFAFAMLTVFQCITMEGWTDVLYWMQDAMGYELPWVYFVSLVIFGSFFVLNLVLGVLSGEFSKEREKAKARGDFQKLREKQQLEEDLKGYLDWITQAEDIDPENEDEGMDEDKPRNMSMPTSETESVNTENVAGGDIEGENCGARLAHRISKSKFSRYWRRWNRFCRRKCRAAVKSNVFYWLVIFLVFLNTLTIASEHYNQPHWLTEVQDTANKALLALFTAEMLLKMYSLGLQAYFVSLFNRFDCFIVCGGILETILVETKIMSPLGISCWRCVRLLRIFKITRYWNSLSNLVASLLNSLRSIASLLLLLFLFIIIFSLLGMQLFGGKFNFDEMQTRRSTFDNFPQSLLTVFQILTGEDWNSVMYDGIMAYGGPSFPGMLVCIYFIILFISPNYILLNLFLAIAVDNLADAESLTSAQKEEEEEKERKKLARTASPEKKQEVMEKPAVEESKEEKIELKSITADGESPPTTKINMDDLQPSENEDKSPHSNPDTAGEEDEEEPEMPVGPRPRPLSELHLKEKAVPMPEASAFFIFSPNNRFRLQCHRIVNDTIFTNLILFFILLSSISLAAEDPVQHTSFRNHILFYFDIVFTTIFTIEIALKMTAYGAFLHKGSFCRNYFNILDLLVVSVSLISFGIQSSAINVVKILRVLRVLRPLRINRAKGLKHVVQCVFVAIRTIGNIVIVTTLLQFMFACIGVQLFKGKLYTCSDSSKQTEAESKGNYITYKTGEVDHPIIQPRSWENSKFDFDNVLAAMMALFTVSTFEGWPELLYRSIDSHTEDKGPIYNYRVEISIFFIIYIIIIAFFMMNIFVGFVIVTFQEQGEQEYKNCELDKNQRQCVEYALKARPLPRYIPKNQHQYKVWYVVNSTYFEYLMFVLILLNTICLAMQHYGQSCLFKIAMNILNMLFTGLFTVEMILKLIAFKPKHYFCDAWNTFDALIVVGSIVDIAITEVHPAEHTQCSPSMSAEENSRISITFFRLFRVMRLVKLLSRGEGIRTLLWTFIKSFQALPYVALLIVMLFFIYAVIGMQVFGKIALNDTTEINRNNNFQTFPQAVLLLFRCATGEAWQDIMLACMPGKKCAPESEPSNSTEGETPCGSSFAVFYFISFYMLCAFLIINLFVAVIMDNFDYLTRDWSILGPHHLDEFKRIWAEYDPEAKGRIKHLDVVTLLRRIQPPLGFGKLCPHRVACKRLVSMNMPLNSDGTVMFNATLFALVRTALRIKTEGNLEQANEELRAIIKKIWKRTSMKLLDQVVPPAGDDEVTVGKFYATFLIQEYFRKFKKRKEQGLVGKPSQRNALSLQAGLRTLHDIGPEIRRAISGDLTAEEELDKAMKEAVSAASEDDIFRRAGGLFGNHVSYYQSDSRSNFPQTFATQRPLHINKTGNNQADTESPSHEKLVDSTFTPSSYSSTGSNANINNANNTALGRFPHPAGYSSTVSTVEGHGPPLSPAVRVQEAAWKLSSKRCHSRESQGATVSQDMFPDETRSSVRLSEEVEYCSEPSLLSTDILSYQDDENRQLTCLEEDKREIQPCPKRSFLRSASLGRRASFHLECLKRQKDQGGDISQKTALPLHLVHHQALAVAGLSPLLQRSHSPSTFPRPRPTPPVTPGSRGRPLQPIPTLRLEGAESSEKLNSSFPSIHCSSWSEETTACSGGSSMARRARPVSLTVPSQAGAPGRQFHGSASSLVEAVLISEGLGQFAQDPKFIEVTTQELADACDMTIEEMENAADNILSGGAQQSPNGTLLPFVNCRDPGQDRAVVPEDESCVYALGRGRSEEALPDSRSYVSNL

Consider `N#Cc1cccc(C(=NOC2CCN(S(=O)(=O)c3ccc(OC(F)(F)F)cc3)CC2)C2CC2)c1` (racemic) [Example 2, 3-(Cyclopropyl(1-(4-(trifluoromethoxy)phenylsulfonyl)piperidin-4-yloxyimino)methyl)benzonitrile], for which the IC50 in assay [1] is > 20000 nM; in assay [2] it was 200 nM.

Consider `O=S(=O)(c1ccc(OC(F)(F)F)cc1)N1CCC(ON=C(c2ccc(F)cc2)c2ccc(F)cc2)CC1` [Example 3, Bis(4-fluorophenyl)methanone O-1-(4-(trifluoromethoxy)phenylsulfonyl)piperidin-4-yl oxime], for which the IC50 is > 20000 nM in assay [1] and 100 nM in assay [2].

For the compound `C/C(=N\OC1CCN(S(=O)(=O)c2ccc(OC(F)(F)F)cc2)CC1)c1cccc(C#N)c1` [Example 4, (E)-3-(1-(1-(4-(Trifluoromethoxy)phenylsulfonyl)piperidin-4-yloxyimino)ethyl)benzonitrile], the results for the IC50 in assay [1] and in assay [2] were > 20000 nM and 180 nM, respectively.

In general, IC50 refers to the concentration needed to halve the response being measured.
